According to patent US6576612B1, “Antitumor therapy comprising distamycin derivatives” (Pharmacia Italia S.p.A., priority 2000, dated 2003):

Tested on: solid tumors
Assay: Phase I pharmacological trial, iv single administration every three weeks
Type: in vivo, patients
Details: one patient suffering from gastrointestinal sarcoma, dose level 5.1 mg/m^2, iv infusion
Experimental: A phase I pharmacological trial was carried out to investigate the iv administration of the title compound given as a single administration every three weeks to patients with solid tumors.
The starting dose of 0.85 mg/m^2 was initially escalated in an accelerated design (100% dose increase, 1 patient/dose level) and then by a conventional dose escalation in 3-6 patient cohorts. 11 patients have been entered so far and 25 cycles have been evaluated for toxicity at dose levels of 0.85, 1.7, 3.4, 5.1 and 7.5 mg/m^2.

With C=C(Br)C(=O)Nc1cc(C(=O)Nc2cc(C(=O)Nc3cc(C(=O)Nc4cc(C(=O)NCCNC(=N)N)n(C)c4)n(C)c3)n(C)c2)n(C)c1.Cl [PNU 166196, N-(5-{[(5-{[(5-{[(2-{[amino(imino)methyl]amino}ethyl)amino]carbonyl}-1-methyl-1H-pyrrol-3-yl)amino]carbonyl}-1-methyl-1H-pyrrol-3-yl)amino]carbonyl}-1-methyl-1H-pyrrol-3-yl)-4-[(2-bromoacryloyl)amino]-1-methyl-1H-pyrrole-2-carboxamide hydrochloride] the tumor response was “partial response”.
